From PubChem BioAssay (NCI)
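Compound exposure: 48 hours, 5 concentrations, 96-well plates. GI50 marks 50% less growth. TGI marks complete inhibition of growth.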

Experiments:
Experiment in all cases: NCI-60 cell line screen, 48 h
MDA-MB-435 = tested on: MDA-MB-435
BT-549 breast = tested on: BT-549 breast
NCI-H522 lung = tested on: NCI-H522 lung
IGROV1 ovarian = tested on: IGROV1 ovarian
COLO 205 colon = tested on: COLO 205 colon
SK-MEL-2 melanoma = tested on: SK-MEL-2 melanoma
SNB-19 CNS = tested on: SNB-19 CNS
OVCAR-4 ovarian = tested on: OVCAR-4 ovarian

| Structure (SMILES) | TGI (MDA-MB-435) [µM] | TGI (BT-549 breast) [µM] | TGI (NCI-H522 lung) [µM] | TGI (IGROV1 ovarian) [µM] | TGI (COLO 205 colon) [µM] | TGI (SK-MEL-2 melanoma) [µM] | TGI (SNB-19 CNS) [µM] | TGI (OVCAR-4 ovarian) [µM] | GI50 (MDA-MB-435) [µM] | GI50 (BT-549 breast) [µM] | GI50 (NCI-H522 lung) [µM] | GI50 (IGROV1 ovarian) [µM] | GI50 (COLO 205 colon) [µM] | GI50 (SK-MEL-2 melanoma) [µM] | GI50 (SNB-19 CNS) [µM] |
| --- | --- | --- | --- | --- | --- | --- | --- | --- | --- | --- | --- | --- | --- | --- | --- |
| CN1C(=O)c2c(c3c4ccccc4n(C)c3c3c2c2ccccc2n3C)C1=O | > 100 | > 100 | > 100 | > 100 | > 100 | > 100 | > 100 | > 100 | – | – | – | – | – | – | – |
| Cc1[nH]c(-c2ccccc2)c(O)c1C(=O)OC1CC(C)CCC1C(C)C (stereo unspecified) | 28 | 33 | 26.6 | 29 | 27.9 | 28.2 | 31.1 | 27.4 | – | – | – | – | – | – | – |
| Clc1cccc(C=NC23CC4CC(CC(C4)C2)C3)c1Cl | > 10 | > 10 | > 10 | > 10 | > 10 | > 10 | > 10 | > 10 | – | – | – | – | – | – | – |
| CSCCC(NOC(=O)Cc1ccccc1)P(=O)(O)c1ccccc1 (stereo unspecified) | > 100 | – | > 100 | > 100 | > 100 | > 100 | > 100 | > 100 | – | – | – | – | – | – | – |
| O=C(NC1CCCCC1)N1CCNC1=S | > 100 | > 100 | > 100 | > 100 | > 100 | 7.09 | – | > 100 | – | – | – | – | – | – | – |
| CCOC(=O)C(NS(=O)(=O)c1ccccc1)(C(F)(F)F)P(=O)(OCC(C)C)OCC(C)C (stereo unspecified) | > 100 | – | > 100 | > 100 | > 100 | – | > 100 | > 100 | – | – | – | – | – | – | – |
| CN(C)CC(O)CNC(=O)Nc1ccccc1 (stereo unspecified) | > 100 | > 100 | – | > 100 | > 100 | > 100 | > 100 | > 100 | – | – | – | – | – | – | – |
| COc1cc2ccnc3c2c(c1OC)N(C)C=C3 | 80.4 | 87.8 | – | – | 96.3 | 57.6 | 75.9 | 71.2 | – | – | – | – | – | – | – |
| O=C(N/N=C/c1ccc(O)cc1)NNCCO | > 100 | > 100 | > 100 | > 100 | > 100 | > 100 | > 100 | – | – | – | – | – | – | – | – |
| Nc1ccc(Oc2ccc(C34CC5CC(C3)CC(c3ccc(Oc6ccc(N)c(O)c6)cc3)(C5)C4)cc2)cc1O | – | 3.37 | 3.33 | 3.04 | 2.85 | 5.1 | 7.5 | 5.28 | – | – | – | – | – | – | – |
| O=C(/C=C/c1cc2ccccc2[nH]c1=O)c1ccc(O)cc1 | 16.8 | 5.35 | 3.29 | 45.1 | 19.7 | 13.6 | 18 | – | 2.94 | 1.95 | 1.7 | 4.35 | 4.51 | 4.13 | 4.59 |
| CNC(=O)/C(C#N)=C(\N)N1CCCC1 | > 100 | – | > 100 | > 100 | > 100 | > 100 | > 100 | – | – | – | – | – | – | – | – |
| O=C(NC12CC3CC(CC(C3)C1)C2)n1cnc2c(Cl)ncnc21 | 40 | 84.1 | 97.5 | 35.4 | 32.6 | 80.7 | > 100 | – | – | – | – | – | – | – | – |
| O=[N+]([O-])c1cc(-c2ccc([As](=O)(O)O)cc2)ccc1[As](=O)(O)O | > 100 | > 100 | > 100 | > 100 | – | > 100 | > 100 | > 100 | – | – | – | – | – | – | – |
| OC[C@@H](O)[C@H](O)[C@H](O)[C@@H](O)C1SCCCS1 | > 100 | > 100 | – | > 100 | > 100 | > 100 | > 100 | > 100 | – | – | – | – | – | – | – |
| COc1ccccc1-c1nc[nH]c1-c1ccccc1OC | – | > 100 | 42.1 | > 100 | – | > 100 | > 100 | > 100 | – | – | – | – | – | – | – |
| N#Cc1ccccc1C#C/C=C\C#Cc1ccccn1 | 20.4 | – | 36.7 | 36.7 | 73.5 | 33.3 | 69.3 | > 100 | – | – | – | – | – | – | – |
| CCc1cc2c(cc1O)CC[C@@H]1[C@@H]2CC[C@]2(C)[C@@H](O)CC[C@@H]12 | 4.99 | – | 27.3 | 28.4 | 31.9 | 25 | 19 | 27.3 | – | – | – | – | – | – | – |
| O=C(O)C(=Cc1ccc(-c2ccc([N+](=O)[O-])cc2)o1)C(=O)O | > 100 | > 100 | > 100 | > 100 | > 100 | > 100 | > 100 | – | – | – | – | – | – | – | – |
| Cc1ccc2c(=O)cc(-c3ccccc3)[nH]c2n1 | 0.0321 | > 100 | 2.94 | > 100 | – | > 100 | > 100 | > 100 | – | – | – | – | – | – | – |
